According to PMC11738990, “A small-molecule TNIK inhibitor targets fibrosis in preclinical and clinical models” (Nature Biotechnology, 2024):
Values joined by “and” are separate entries in the source; they are usually repeats but may differ in a detail not shown here. Equal values may be shown once. Read-outs that look alike come from different tables or passages of the source.

Columns and labels:
A549 cells = details: for P65/GAPDH normalized / p-P65/GAPDH normalized: TGF-β+TNF-a=1; for E-Cadherin/GAPDH normalized: DMSO=1; for N-Cadherin/GAPDH normalized / Smad2/3/GAPDH normalized / p- Smad2/3/GAPDH normalized / b-catenin/ HDAC2 normalized / b-catenin/ Histone 3 normalized / b-catenin/ tubulin normalized: TGF-β=1
C57BL/6 mice = assay: Bleomycin-induced lung fibrosis model, combination with pirfenidone; format: in vivo, mouse; details: INS018_055 3mpk BID; 3 mg/kg
Experimental: Mice received bleomycin on day 1 at a dose of 0.66 mg per kg (equivalent to 1 U per kg), in a volume of 50 μl by intratracheal administration, or received saline (sham group). On day 7, dosing with the corresponding compounds was started. The vehicle group (group 1) was treated with 0.5% methylcellulose BID. […] On days 5 and 21, lung function measurement was performed. On day 28, all animals were killed, and blood and tissue samples were collected along with BALF.
Lung function was measured according to the HDB standard protocol. Expiratory time, relaxation time, peak expiratory flow and peak inspiratory flow were collected and used to calculate Penh data.
Lung sections were cut at a thickness of 4 μm, dried in an oven for 1 h and stained with M&T using our standard protocol. Briefly, sections were stained with Weigert’s iron hematoxylin working solution for 10 min, stained in Biebrich scarlet–acid fuchsin solution for 10 min, differentiated in phosphomolybdic–phosphotungstic acid solution for 5 min or until the collagen was not red, transferred to aniline blue solution, stained for 1 min and then dedifferentiated in 1% acetic acid solution. Next, sections were dehydrated and coverslipped for subsequent image analysis. For image analysis of collagen deposition, Masson’s trichrome-stained slides were scanned by using Aperio ScanScope Model CS2 (Leica) at ×200 magnification. Images were then opened with HALO. Using the pen tool, the whole left lung section was selected as an annotation layer. The area occupied by blue collagen fibers was measured using the pen tool. The percentage of fibrosis (positive areas) in the selected annotation was then calculated with the program. Fibrosis was expressed as a percentage per lung section.
Sections (4 μm thick) were placed on slides, and, after overnight drying, paraffin was removed with xylene. Next, sections were placed in a graded ethanol series and immersed in distilled water. After heat-induced citrate antigen (pH 6.0) unmasking, sections were immersed in 3% hydrogen peroxide solution for 5 min. […] Next, secondary antibodies conjugated to HRP were added. For image analysis of fibrosis, stained sections were used and scanned with the Aperio CS2 Scanner machine. Images were then opened with HALO. Using the pen tool, the whole left lung section was selected as an annotation layer. The bronchus was excluded in the annotation layer. The area occupied by collagen fibers was measured using the ‘Area Quantification v2.1.3’ module. The percentage of positive areas in the selected annotation was then calculated using the program.

[1] = 0.3 μM, TGF-β+TNF-a group, Batch 1
[2] = 0.3 μM, TGF-β+TNF-a group, Batch 2
[3] = 0.3 μM, TGF-β+TNF-a group, Batch 3
[4] = 1 μM, TGF-β+TNF-a group, Batch 1
[5] = 1 μM, TGF-β+TNF-a group, Batch 2
[6] = 1 μM, TGF-β+TNF-a group, Batch 3
[7] = 3 μM, TGF-β+TNF-a group, Batch 1
[8] = 3 μM, TGF-β+TNF-a group, Batch 2
[9] = 3 μM, TGF-β+TNF-a group, Batch 3

CC(C)n1cnc(-c2ccc(F)cc2)c1-c1nc(C(=O)Nc2ccc(N3CCN(C)CC3)cc2)c[nH]1 [INS018_055, 2-[4-(4-fluorophenyl)-1-(prop-2-yl)imidazol-5-yl]-N-[4-(4-methylhexahydropyrazin-1-yl)phenyl]-1H-imidazole-4-carboxamide]
P65/GAPDH normalized (A549 cells; 0.3 μM, TGF-β group, Batch 2): 0.8627 | p-P65/GAPDH normalized (A549 cells; 0.3 μM, TGF-β group, Batch 2): 0.05473 | P65/GAPDH normalized (A549 cells; 0.3 μM, TGF-β group, Batch 3): 0.4505 | p-P65/GAPDH normalized (A549 cells; 0.3 μM, TGF-β group, Batch 3): 0.04515 | P65/GAPDH normalized (A549 cells; [1]): 0.6352 | p-P65/GAPDH normalized (A549 cells; [1]): 0.6859 | P65/GAPDH normalized (A549 cells; [2]): 0.8628 | p-P65/GAPDH normalized (A549 cells; [2]): 0.7296 | P65/GAPDH normalized (A549 cells; [3]): 0.342 | p-P65/GAPDH normalized (A549 cells; [3]): 0.3802 | E-Cadherin/GAPDH normalized (A549 cells; 1 μM, Batch 1): 1.5017 | N-Cadherin/GAPDH normalized (A549 cells; 1 μM, Batch 1): 0.1538 | Smad2/3/GAPDH normalized (A549 cells; 1 μM, Batch 1): 1.22 | p- Smad2/3/GAPDH normalized (A549 cells; 1 μM, Batch 1): 0.02816 | E-Cadherin/GAPDH normalized (A549 cells; 1 μM, Batch 2): 1.0948 | N-Cadherin/GAPDH normalized (A549 cells; 1 μM, Batch 2): 0.1737 | Smad2/3/GAPDH normalized (A549 cells; 1 μM, Batch 2): 1.233 | b-catenin/ HDAC2 normalized (A549 cells; 1 μM, Batch 2): 0.9055 | b-catenin/ Histone 3 normalized (A549 cells; 1 μM, Batch 2): 0.7183 | b-catenin/ tubulin normalized (A549 cells; 1 μM, Batch 2): 0.408 | p- Smad2/3/GAPDH normalized (A549 cells; 1 μM, Batch 2): 0.1116 | E-Cadherin/GAPDH normalized (A549 cells; 1 μM, Batch 3): 1.05 | N-Cadherin/GAPDH normalized (A549 cells; 1 μM, Batch 3): 0.09916 | Smad2/3/GAPDH normalized (A549 cells; 1 μM, Batch 3): 1.054 | b-catenin/ HDAC2 normalized (A549 cells; 1 μM, Batch 3): 0.9651 | b-catenin/ Histone 3 normalized (A549 cells; 1 μM, Batch 3): 0.7434 | b-catenin/ tubulin normalized (A549 cells; 1 μM, Batch 3): 0.8806 | p- Smad2/3/GAPDH normalized (A549 cells; 1 μM, Batch 3): 0.1186 | b-catenin/ HDAC2 normalized (A549 cells; 1 μM, Batch 4): 1.855 | b-catenin/ Histone 3 normalized (A549 cells; 1 μM, Batch 4): 0.679 | b-catenin/ tubulin normalized (A549 cells; 1 μM, Batch 4): 1.374 | P65/GAPDH normalized (A549 cells; 1 μM, TGF-β group, Batch 1): 0.3482 | p-P65/GAPDH normalized (A549 cells; 1 μM, TGF-β group, Batch 1): 0.05447 | P65/GAPDH normalized (A549 cells; 1 μM, TGF-β group, Batch 2): 0.9166 | p-P65/GAPDH normalized (A549 cells; 1 μM, TGF-β group, Batch 2): 0.06504 | P65/GAPDH normalized (A549 cells; 1 μM, TGF-β group, Batch 3): 0.4988 | p-P65/GAPDH normalized (A549 cells; 1 μM, TGF-β group, Batch 3): 0.05557 | P65/GAPDH normalized (A549 cells; [4]): 0.397 | p-P65/GAPDH normalized (A549 cells; [4]): 0.497 | P65/GAPDH normalized (A549 cells; [5]): 0.7304 | p-P65/GAPDH normalized (A549 cells; [5]): 0.6585 | P65/GAPDH normalized (A549 cells; [6]): 0.3751 | p-P65/GAPDH normalized (A549 cells; [6]): 0.3266 | E-Cadherin/GAPDH normalized (A549 cells; 3 μM, Batch 1): 1.832 | N-Cadherin/GAPDH normalized (A549 cells; 3 μM, Batch 1): 0.1802 | Smad2/3/GAPDH normalized (A549 cells; 3 μM, Batch 1): 1.447 | p- Smad2/3/GAPDH normalized (A549 cells; 3 μM, Batch 1): 0.01636 | E-Cadherin/GAPDH normalized (A549 cells; 3 μM, Batch 2): 1.252 | N-Cadherin/GAPDH normalized (A549 cells; 3 μM, Batch 2): 0.1613 | Smad2/3/GAPDH normalized (A549 cells; 3 μM, Batch 2): 1.278 | b-catenin/ HDAC2 normalized (A549 cells; 3 μM, Batch 2): 1.403 | b-catenin/ Histone 3 normalized (A549 cells; 3 μM, Batch 2): 0.21 | b-catenin/ tubulin normalized (A549 cells; 3 μM, Batch 2): 0.2321 | p- Smad2/3/GAPDH normalized (A549 cells; 3 μM, Batch 2): 0.09113 | E-Cadherin/GAPDH normalized (A549 cells; 3 μM, Batch 3): 1.09 | N-Cadherin/GAPDH normalized (A549 cells; 3 μM, Batch 3): 0.0841 | Smad2/3/GAPDH normalized (A549 cells; 3 μM, Batch 3): 1.0906 | b-catenin/ HDAC2 normalized (A549 cells; 3 μM, Batch 3): 0.958 | b-catenin/ Histone 3 normalized (A549 cells; 3 μM, Batch 3): 0.258 | b-catenin/ tubulin normalized (A549 cells; 3 μM, Batch 3): 1.067 | p- Smad2/3/GAPDH normalized (A549 cells; 3 μM, Batch 3): 0.09865 | b-catenin/ HDAC2 normalized (A549 cells; 3 μM, Batch 4): 2.079 | b-catenin/ Histone 3 normalized (A549 cells; 3 μM, Batch 4): 0.1136 | b-catenin/ tubulin normalized (A549 cells; 3 μM, Batch 4): 1.238 | P65/GAPDH normalized (A549 cells; 3 μM, TGF-β group, Batch 1): 0.5411 | p-P65/GAPDH normalized (A549 cells; 3 μM, TGF-β group, Batch 1): 0.07665 | P65/GAPDH normalized (A549 cells; 3 μM, TGF-β group, Batch 2): 0.9083 | p-P65/GAPDH normalized (A549 cells; 3 μM, TGF-β group, Batch 2): 0.116 | P65/GAPDH normalized (A549 cells; 3 μM, TGF-β group, Batch 3): 0.5638 | p-P65/GAPDH normalized (A549 cells; 3 μM, TGF-β group, Batch 3): 0.08352 | P65/GAPDH normalized (A549 cells; [7]): 0.3919 | p-P65/GAPDH normalized (A549 cells; [7]): 0.3522 | P65/GAPDH normalized (A549 cells; [8]): 0.5755 | p-P65/GAPDH normalized (A549 cells; [8]): 0.6038 | P65/GAPDH normalized (A549 cells; [9]): 0.3478 | p-P65/GAPDH normalized (A549 cells; [9]): 0.3112 | Modified Ashcroft Score (C57BL/6 mice): 5.75 and 4.5 and 3
